Source: paper PMC9354243, “The Role of Tryptophan in π Interactions in Proteins: An Experimental Approach” (Journal of the American Chemical Society, 2022)

Columns and labels:
RibU W97Y [1] = molecular target: T1, RibU W97Y (Lactococcus lactis subsp. cremoris, UniProt D8KIE9, W97Y); test: Fluorescence titration of RibU with RBF, natural Trp (W); format: binding
T1 construct: His10; made in house; host or cells: Lactococcus lactis Trp auxotroph NZ9000-trp with pMG36e-trpRS
Procedure: (§1) Fluorescence titration experiments of the different RibU constructs with RBF at 20 °C allowed estimation of the impact of W68 fluorination or 5-methylation on the binding affinity (Figure 3 and Table 5).
(§2) Figure 3 Titration of Trp analog labeled RibU W97Y proteins with RBF. The RBF fluorescence was measured at the indicated RBF concentrations in the absence (triangles) or presence (dots) of the W97Y RibU variant (see insets). The difference between these two signals were calculated to build the titration curve. This curve was used to compute the RBF Kd (see Experimental Section in the Supporting Information). Panels from left to right present the results for RibU W97Y, labeled with 5MeW, 5FW, 5,7diFW, and 5,6,7triFW, respectively.
(§3) Binding assays – Fluorescence titrations of RibU with RBF.
(§4) The concentration of the riboflavin stock was established using a Jasco V-650 spectrophotometer with an ε435 of 12600 M-1.cm-1 The concentration of RibU-His was calculated using a Nanodrop (Thermo […]
(§5) Riboflavin was excited at 435 nm and emission was recorded between 450 nm and 700 nm using a FluoroLog 322 Spectrofluorometer (Jobin Yvon). The excitation and emission s lits were set at 1.1 nm and 3.5 nm, respectively. Titration experiments were performed in a 1 mL quartz cuvette at 20 °C as described.13 In brief, purified and desalted RibU protein in gel filtration buffer was titrated with RBF and after each addition the emission spectrum was recorded twice, corrected for buffer emission and instrument response and integrated. The integrated emission intensities were corrected for dilution and compared to the integrated emission of riboflavin collected under these conditions in the absence […]
(§6) The Kd of RBF was derived by first determining the difference in fluorescence signal between the blan k titration with only the gel filtration buffer and the titration using the protein RibU -His in buffer. The obtained curve was fitted using equation I and the program OriginLab16 with n = number of binding sites, X = total RibU concentration, and S = maximal fluorescence signal in A.U. […]

RibU W97Y [2] = test: as above; format: binding, Lactococcus lactis; details: extrapolation to RibU labeled with tetrafluoroTrp
Procedure: as §1, §2, §3, §4, §5, §6

RibU = molecular target: RibU; set-up: method as in PMID 17289680; details: cited from earlier work

T1 sequence (D8KIE9 whole entry W97Y): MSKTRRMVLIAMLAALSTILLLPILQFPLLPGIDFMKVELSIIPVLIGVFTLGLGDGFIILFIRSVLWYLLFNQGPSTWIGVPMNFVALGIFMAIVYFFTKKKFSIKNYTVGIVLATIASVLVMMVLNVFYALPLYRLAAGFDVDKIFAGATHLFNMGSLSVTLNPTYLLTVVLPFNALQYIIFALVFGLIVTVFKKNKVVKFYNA

With `Cc1cc2nc3c(=O)[nH]c(=O)nc-3n(C[C@H](O)[C@H](O)[C@H](O)CO)c2cc1C` [RBF, riboflavin] the Kd (RibU W97Y [1]) was 1.8 ± 0.8 nM, the “Electrostatic contribution of W68 as share of total RBF binding energy” value (RibU W97Y [1]; RibU containing natural Trp) was 15–20% and the “Lowering of ΔG for RBF binding” value (RibU W97Y [2]) was ~1.9 kcal/mol. For the same molecule, the Kd (RibU) was ~1 nM.
